According to ChEMBL document CHEMBL1201862, “PubChem BioAssay data set” (2004):
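Method: 48-hour compound exposure of cells in 96-well plates, five concentrations, linear interpolation of endpoints. The concentration for 50% growth inhibition is given as GI50.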 Calls of active or inactive are those of the source. Cut-off read from the data, not from the text of the source: active = GI50 up to about 1.1 µM and inactive = higher.

Assays:
Assay in all cases: NCI-60 cell line screen, 48 h
UACC-257 = tested on: UACC-257
NCI-H522 = tested on: NCI-H522
TK-10 = tested on: TK-10
LOX IMVI = tested on: LOX IMVI
MOLT-4 = tested on: MOLT-4
NCI-H23 = tested on: NCI-H23
SNB-19 = tested on: SNB-19
SW-620 = tested on: SW-620
IGROV-1 = tested on: IGROV-1
SN12C = tested on: SN12C
DU-145 = tested on: DU-145
M14 = tested on: M14
K562 = tested on: K562
U-251 = tested on: U-251
A549 = tested on: A549
SF-295 = tested on: SF-295
MDA-MB-231 = tested on: MDA-MB-231
SR = tested on: SR
786-0 = tested on: 786-0
RPMI-8226 = tested on: RPMI-8226

Measured: GI50

Oc1ccc(Cc2nccc3cc(O)c(O)cc23)cc1O
inactive: UACC-257 20.8 µM | NCI-H522 30.4 µM | TK-10 32.7 µM | LOX IMVI 33.5 µM | MOLT-4 22.3 µM | NCI-H23 38.1 µM | SNB-19 55.2 µM | SW-620 36.1 µM | IGROV-1 33 µM | SN12C 29.9 µM | DU-145 66.5 µM | M14 26.6 µM | K562 26.8 µM | U-251 37.9 µM | A549 54.3 µM | SF-295 37.2 µM | MDA-MB-231 97.1 µM | SR 19.6 µM | 786-0 32.1 µM | RPMI-8226 27.4 µM

COc1ccc(-c2cc3cc(Cl)cc(Cl)c3oc2=O)cc1OC
inactive: UACC-257 51.1 µM | NCI-H522 36.1 µM | TK-10 44.9 µM | LOX IMVI > 100 µM | MOLT-4 > 100 µM | NCI-H23 36.5 µM | SNB-19 28.2 µM | SW-620 > 100 µM | IGROV-1 51.8 µM | SN12C 39.8 µM | DU-145 > 100 µM | M14 60.3 µM | K562 33.3 µM | U-251 37.2 µM | A549 92.3 µM | SF-295 48.5 µM | MDA-MB-231 62.7 µM | SR 82 µM | 786-0 35.3 µM | RPMI-8226 63.5 µM

CC(=O)O[C@H]1C[C@H]2[C@@H]([C@H](OC(C)=O)C[C@@H]3CC4(CC[C@@]32C)OOC2(CCCCC2)OO4)[C@@H]2CC[C@H]([C@H](C)CCC(=O)O)[C@@]12C
inactive: UACC-257 11.4 µM | NCI-H522 3.24 µM | TK-10 12.4 µM | LOX IMVI 3.48 µM | MOLT-4 9.02 µM | NCI-H23 4.13 µM | SNB-19 6.71 µM | SW-620 10.2 µM | IGROV-1 1.87 µM | SN12C 6.81 µM | DU-145 10.4 µM | M14 12 µM | K562 5.57 µM | U-251 4.52 µM | A549 2.66 µM | SF-295 5.93 µM | MDA-MB-231 14.1 µM | SR 2.44 µM | 786-0 11.3 µM | RPMI-8226 3.46 µM

CCOC(=O)/C=C(/C(=O)OCC)n1cnc2c(=O)[nH]c(NC(C)=O)nc21
inactive: UACC-257 > 100 µM | NCI-H522 > 100 µM | TK-10 > 100 µM | LOX IMVI > 100 µM | MOLT-4 > 100 µM | NCI-H23 > 100 µM | SNB-19 > 100 µM | SW-620 > 100 µM | IGROV-1 > 100 µM | SN12C > 100 µM | DU-145 > 100 µM | M14 > 100 µM | K562 > 100 µM | U-251 > 100 µM | A549 > 100 µM | SF-295 > 100 µM | MDA-MB-231 > 100 µM | SR > 100 µM | 786-0 > 100 µM | RPMI-8226 > 100 µM

CC1=C2C(=O)c3ccccc3C(=O)[C@H]2C[C@@H](N2CCCCCC2=O)O1
inactive: UACC-257 17.4 µM | NCI-H522 19.9 µM | TK-10 23 µM | LOX IMVI 17.3 µM | MOLT-4 14.7 µM | NCI-H23 14.9 µM | SNB-19 21 µM | SW-620 17.3 µM | IGROV-1 16.4 µM | SN12C 17.7 µM | DU-145 18.3 µM | M14 15.4 µM | K562 19.8 µM | U-251 23.8 µM | A549 20.3 µM | SF-295 18.8 µM | MDA-MB-231 22.5 µM | SR 6.92 µM | 786-0 18.4 µM | RPMI-8226 14.6 µM

CCCC(=O)NC1=C(Cl)C(=O)c2ccccc2C1=O
inactive: UACC-257 4.29 µM | NCI-H522 1.13 µM | TK-10 4.89 µM | LOX IMVI 2.51 µM | MOLT-4 2.56 µM | NCI-H23 3.03 µM | SNB-19 6.89 µM | SW-620 1.79 µM | IGROV-1 5.07 µM | SN12C 10.8 µM | DU-145 8.32 µM | M14 3.13 µM | K562 2.07 µM | U-251 3.78 µM | A549 4.39 µM | SF-295 4.99 µM | MDA-MB-231 3.94 µM | SR 1.83 µM | 786-0 4.53 µM | RPMI-8226 1.48 µM

COC(=O)CCC(C)[C@H]1CCC2C3C(C[C@H](OC(C)=O)[C@@]21C)[C@@]1(C)CCC2(C[C@H]1C[C@H]3OC(C)=O)OOC1(CCCCCCC1)OO2 (stereo not given in full)
inactive: UACC-257 5.35 µM | NCI-H522 10.9 µM | TK-10 6.53 µM | LOX IMVI 3.65 µM | MOLT-4 3.12 µM | NCI-H23 6.55 µM | SNB-19 > 100 µM | SW-620 6.3 µM | IGROV-1 6.37 µM | SN12C 23.3 µM | DU-145 6.58 µM | M14 27.9 µM | K562 4.67 µM | U-251 5.86 µM | A549 4.56 µM | SF-295 6.38 µM | MDA-MB-231 8.26 µM | SR 2.29 µM | 786-0 6 µM | RPMI-8226 1.67 µM

CC12CC1C(c1cccc([N+](=O)[O-])c1)(c1cccc([N+](=O)[O-])c1)N=N2 (stereo not given)
inactive: UACC-257 28.1 µM | NCI-H522 6.7 µM | TK-10 27.8 µM | LOX IMVI 13.2 µM | MOLT-4 28.3 µM | NCI-H23 19.1 µM | SNB-19 32.5 µM | SW-620 23.2 µM | IGROV-1 20.3 µM | SN12C 25.6 µM | DU-145 24.3 µM | M14 38.9 µM | K562 29.9 µM | U-251 18.7 µM | A549 54.7 µM | SF-295 57 µM | MDA-MB-231 16.5 µM | SR 19.6 µM | 786-0 20.7 µM | RPMI-8226 2.96 µM

C=C1CCCC(C)(C)[C@H]1C/C=C1\CCOC1=O
inactive: UACC-257 12.1 µM | NCI-H522 18 µM | TK-10 19.5 µM | LOX IMVI 11.5 µM | MOLT-4 10.6 µM | NCI-H23 14.2 µM | SNB-19 16.8 µM | SW-620 18.7 µM | IGROV-1 14.2 µM | SN12C 18.2 µM | DU-145 13.2 µM | M14 17.5 µM | K562 11.9 µM | U-251 16.8 µM | A549 13.7 µM | SF-295 17.1 µM | MDA-MB-231 17.7 µM | SR 12.4 µM | 786-0 14.7 µM | RPMI-8226 6.62 µM
